Experimental findings from BindingDB's records for doi:10.1021/acs.jmedchem.5b01828 (University of Macau, 2016) are described below.

In assay [1] the target is T1, [Pyruvate dehydrogenase (acetyl-transferring)] kinase isozyme 1, mitochondrial (Homo sapiens, UniProt Q15118). Description: Competitive binding affinity to recombinant N-terminal 6xHis-SUMO-tagged human PDK1 (29 to 436 residues) expressed in Escherichia coli BL-21 assessed as Kd of AZD7545 at 50 uM by isothermal titration calorimetric method (Rvb = 290.6 nM). In general terms: Isothermal titration calorimetry measures the heat released or taken up as one component is titrated into another.

Assay [2] deals with T1, [Pyruvate dehydrogenase (acetyl-transferring)] kinase isozyme 1, mitochondrial. The experiment in a line: Competitive binding affinity to recombinant N-terminal 6xHis-SUMO-tagged human PDK1 (29 to 436 residues) expressed in Escherichia coli BL-21 assessed as Kd of ADP at 50 uM by isothermal titration calorimetric method (Rvb = 4.27 uM).

T1 sequence (Q15118 whole entry, the tested form may be a part): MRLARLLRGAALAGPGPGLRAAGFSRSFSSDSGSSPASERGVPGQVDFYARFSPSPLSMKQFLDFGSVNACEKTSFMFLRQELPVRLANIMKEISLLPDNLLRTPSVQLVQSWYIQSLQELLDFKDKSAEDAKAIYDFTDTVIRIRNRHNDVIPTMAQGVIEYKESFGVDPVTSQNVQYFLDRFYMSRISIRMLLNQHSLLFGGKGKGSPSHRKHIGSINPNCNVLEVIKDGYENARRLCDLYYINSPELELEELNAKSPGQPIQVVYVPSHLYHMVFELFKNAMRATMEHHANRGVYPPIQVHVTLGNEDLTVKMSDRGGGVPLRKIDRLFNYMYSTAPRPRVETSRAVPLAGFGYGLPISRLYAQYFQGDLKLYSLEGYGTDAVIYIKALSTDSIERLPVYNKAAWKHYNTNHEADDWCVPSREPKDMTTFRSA

One may read the Kd as the concentration at which binding is half-saturated. Regarding `O=C(Nc1ccc(Cl)c(C(F)(F)F)c1)C(Cl)Cl`, the Kd in assay [1] amounted to 0.291 µM; in assay [2], 7.87 µM.
